Reference: patent publication US9850283B2, “Macrocyclic inhibitors of the PD-1/PD-L1 and CD80(B7-1)/PD-L1 protein/protein interactions” (BRISTOL-MYERS SQUIBB COMPANY, priority 2013, dated 2017)
Positions of bridges follow the written chain, without caps; N, C: chain ends. Non-standard residues stand in square brackets, D forms with d. Residues, ends and D or L forms follow the SMILES beside them. Bta = N[C@@H](Cc1csc2ccccc12)C(=O)O; Hyp = O=C(O)[C@@H]1C[C@@H](O)CN1; NMeNle = CCCC[C@H](NC)C(=O)O; NMeA = CN[C@@H](C)C(=O)O; Dab = NCC[C@H](N)C(=O)O; Dap = NC[C@H](N)C(=O)O

Key:
[1] = biological target: T1, LK35.2-hPD-L1 cells / PE-labeled PD-1-Ig (Homo sapiens, UniProt Q9NZQ7); assay: LK35.2-hPD-L1 cell binding high-content screening assay; assay type: cell-based; conditions: cell binding assay, cell line not given; cluster symbol; read-out: CBA IC50 cluster
T1 construct: expressed in transfected cells; host or cells: LK35.2 mouse B cell line
T1 sequence (Q9NZQ7 19-290): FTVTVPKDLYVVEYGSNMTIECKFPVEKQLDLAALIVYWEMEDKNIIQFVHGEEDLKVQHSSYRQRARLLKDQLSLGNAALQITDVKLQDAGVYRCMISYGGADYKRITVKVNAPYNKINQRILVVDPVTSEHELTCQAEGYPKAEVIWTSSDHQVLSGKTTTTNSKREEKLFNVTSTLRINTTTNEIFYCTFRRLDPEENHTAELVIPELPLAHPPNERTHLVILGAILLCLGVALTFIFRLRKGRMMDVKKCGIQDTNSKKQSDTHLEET
Method in brief: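 Binding of PE-conjugated human PD-1-Ig (1 nM final) to human PD-L1 stably expressed on a mouse B-cell line (LK35.2) was measured by high-content imaging after washes. Compound and labeled PD-1-Ig were co-incubated 1 h at 37 °C with cells in RPMI/10% FCS.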

[2] = biological target: T2, Human PD-L1/PD-1 (Homo sapiens, UniProt Q9NZQ7); assay: HTRF PD-1-Ig/PD-L1-His binding assay (human PD-L1); conditions: cluster symbol; read-out: HTRF IC50 cluster
T2 construct: made in house; host or cells: HEK293T
T2 sequence (Q9NZQ7 with tags, fused parts or gaps): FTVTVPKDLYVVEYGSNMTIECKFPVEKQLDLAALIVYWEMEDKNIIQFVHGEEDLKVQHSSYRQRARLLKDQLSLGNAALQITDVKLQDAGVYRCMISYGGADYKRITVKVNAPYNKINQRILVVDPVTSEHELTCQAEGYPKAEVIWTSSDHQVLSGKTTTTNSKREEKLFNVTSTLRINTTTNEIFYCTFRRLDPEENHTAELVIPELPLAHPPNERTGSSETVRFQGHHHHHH
Method in brief: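 Soluble Fc-fused PD-1 and His-tagged PD-L1 (truncated before the transmembrane region) were combined in dPBS with 0.1% (w/v) BSA and 0.05% (v/v) Tween-20. Binding was read by HTRF using europium cryptate anti-Ig antibody (1 nM final) and APC anti-His antibody (20 nM final).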

SMILES	IC50 [1]	IC50 [2]
CCCC[C@H]1C(=O)N(C)[C@@H](CCCC)C(=O)N[C@@H](CCN)C(=O)N[C@H](C(=O)NCC(N)=O)CSCC(=O)N[C@@H](Cc2ccc(O)cc2)C(=O)N(C)[C@@H](C)C(=O)N[C@@H](CC(N)=O)C(=O)N2CCC[C@H]2C(=O)N[C@@H](CN)C(=O)N[C@@H](CCC(N)=O)C(=O)N2C[C@H](O)C[C@H]2C(=O)N[C@@H](Cc2c[nH]c3ccccc23)C(=O)N[C@@H](CO)C(=O)N[C@@H](Cc2c[nH]c3ccccc23)C(=O)N1C [Example 5042] ({CH2CO}-Y[NMeA]NP[Dap]Q[Hyp]WSW[NMeNle][NMeNle][Dab]CG-NH2; thioether N-14)	0.158 to 4.71 nM	0.385 to 6.74 nM
CCCC[C@H]1C(=O)N(C)[C@@H](CCCC)C(=O)N[C@@H](CCN)C(=O)N[C@H](C(=O)NCC(N)=O)CSCC(=O)N[C@@H](Cc2ccc(O)cc2)C(=O)N(C)[C@@H](C)C(=O)N[C@@H](CC(N)=O)C(=O)N2CCC[C@H]2C(=O)N[C@@H](Cc2cnc[nH]2)C(=O)N[C@@H](CCC(N)=O)C(=O)N2C[C@H](O)C[C@H]2C(=O)N[C@@H](Cc2c[nH]c3ccccc23)C(=O)N[C@@H](CCN)C(=O)N[C@@H](Cc2c[nH]c3ccccc23)C(=O)N1C [Example 5043] ({CH2CO}-Y[NMeA]NPHQ[Hyp]W[Dab]W[NMeNle][NMeNle][Dab]CG-NH2; thioether N-14)	0.158 to 4.71 nM	6.76 to 30.3 nM
CCCC[C@H]1C(=O)N(C)[C@@H](CCCC)C(=O)N[C@@H](CCN)C(=O)N[C@H](C(=O)NCC(N)=O)CSCC(=O)N[C@@H](Cc2ccc(O)cc2)C(=O)N(C)[C@@H](C)C(=O)N[C@@H](CC(N)=O)C(=O)N2CCC[C@H]2C(=O)N[C@@H](CN)C(=O)N[C@@H](CCC(N)=O)C(=O)N2C[C@H](O)C[C@H]2C(=O)N[C@@H](Cc2c[nH]c3ccccc23)C(=O)N[C@@H](CCN)C(=O)N[C@@H](Cc2c[nH]c3ccccc23)C(=O)N1C [Example 5044] ({CH2CO}-Y[NMeA]NP[Dap]Q[Hyp]W[Dab]W[NMeNle][NMeNle][Dab]CG-NH2; thioether N-14)	0.158 to 4.71 nM	0.385 to 6.74 nM
CCCC[C@H]1C(=O)N(C)[C@@H](CCCC)C(=O)N[C@@H](CCN)C(=O)N[C@H](C(=O)NCC(N)=O)CSCC(=O)N[C@@H](Cc2ccc(O)cc2)C(=O)N(C)[C@@H](C)C(=O)N[C@@H](CC(=O)O)C(=O)N2CCC[C@H]2C(=O)N[C@@H](Cc2cnc[nH]2)C(=O)N[C@@H](CCC(N)=O)C(=O)N2C[C@H](O)C[C@H]2C(=O)N[C@@H](Cc2c[nH]c3ccccc23)C(=O)N[C@@H](CO)C(=O)N[C@@H](Cc2c[nH]c3ccccc23)C(=O)N1C [Example 5045] ({CH2CO}-Y[NMeA]DPHQ[Hyp]WSW[NMeNle][NMeNle][Dab]CG-NH2; thioether N-14)	0.158 to 4.71 nM	0.385 to 6.74 nM
CCCC[C@H]1C(=O)N(C)[C@@H](CCCC)C(=O)N[C@@H](CCN)C(=O)N[C@H](C(=O)NCC(N)=O)CSCC(=O)N[C@@H](Cc2ccc(O)cc2)C(=O)N(C)[C@@H](C)C(=O)N[C@@H](CC(=O)O)C(=O)N2CCC[C@H]2C(=O)N[C@@H](Cc2cnc[nH]2)C(=O)N[C@@H](CCC(N)=O)C(=O)N2C[C@H](O)C[C@H]2C(=O)N[C@@H](Cc2c[nH]c3ccccc23)C(=O)N[C@@H](CCN)C(=O)N[C@@H](Cc2c[nH]c3ccccc23)C(=O)N1C [Example 5046] ({CH2CO}-Y[NMeA]DPHQ[Hyp]W[Dab]W[NMeNle][NMeNle][Dab]CG-NH2; thioether N-14)	> 74.3 nM	0.385 to 6.74 nM
CCCC[C@H]1C(=O)N(C)[C@@H](CCCC)C(=O)N[C@@H](C)C(=O)N[C@H](C(=O)NCC(N)=O)CSCC(=O)N[C@@H](Cc2ccc(O)cc2)C(=O)N(C)[C@@H](C)C(=O)N[C@@H](CC(N)=O)C(=O)N2CCC[C@H]2C(=O)N[C@@H](Cc2cnc[nH]2)C(=O)N[C@@H](CCC(N)=O)C(=O)N2C[C@H](O)C[C@H]2C(=O)N[C@@H](Cc2c[nH]c3ccccc23)C(=O)N[C@@H](CO)C(=O)N[C@@H](Cc2c[nH]c3ccccc23)C(=O)N1C [Example 5047]	4.78 to 72.9 nM	6.76 to 30.3 nM
CCCC[C@H]1C(=O)N(C)[C@@H](CCCC)C(=O)N[C@@H](CC(C)C)C(=O)N[C@H](C(=O)NCC(N)=O)CSCC(=O)N[C@@H](Cc2ccc(O)cc2)C(=O)N(C)[C@@H](C)C(=O)N[C@@H](CC(N)=O)C(=O)N2CCC[C@H]2C(=O)N[C@@H](Cc2cnc[nH]2)C(=O)N[C@@H](CCC(=O)O)C(=O)N2C[C@H](O)C[C@H]2C(=O)N[C@@H](Cc2csc3ccccc23)C(=O)N[C@@H](CCN)C(=O)N[C@@H](Cc2c[nH]c3ccccc23)C(=O)N1C [Example 5051] ({CH2CO}-Y[NMeA]NPHE[Hyp][Bta][Dab]W[NMeNle][NMeNle]LCG-NH2; thioether N-14)	> 74.3 nM	> 30.5 nM
CCCC[C@H]1C(=O)N(C)[C@@H](CCCC)C(=O)N[C@@H](CCCNC(=N)N)C(=O)N[C@H](C(=O)NCC(N)=O)CSCC(=O)N[C@@H](Cc2ccc(O)cc2)C(=O)N(C)[C@@H](C)C(=O)N[C@@H](CC(N)=O)C(=O)N2CCC[C@H]2C(=O)N[C@@H](Cc2cnc[nH]2)C(=O)N[C@@H](CCC(=O)O)C(=O)N2C[C@H](O)C[C@H]2C(=O)N[C@@H](Cc2csc3ccccc23)C(=O)N[C@@H](CCN)C(=O)N[C@@H](Cc2c[nH]c3ccccc23)C(=O)N1C [Example 5052] ({CH2CO}-Y[NMeA]NPHE[Hyp][Bta][Dab]W[NMeNle][NMeNle]RCG-NH2; thioether N-14)	> 74.3 nM	> 30.5 nM
CCCC[C@H]1C(=O)N(C)[C@@H](CCCC)C(=O)N[C@@H](CCN)C(=O)N[C@H](C(=O)NCC(N)=O)CSCC(=O)N[C@@H](Cc2ccc(O)cc2)C(=O)N(C)[C@@H](C)C(=O)N[C@@H](CC(N)=O)C(=O)N2CCC[C@H]2C(=O)N[C@@H](Cc2cnc[nH]2)C(=O)N[C@@H](CCC(=O)O)C(=O)N2C[C@H](O)C[C@H]2C(=O)N[C@@H](Cc2csc3ccccc23)C(=O)N[C@@H](C)C(=O)N[C@@H](Cc2c[nH]c3ccccc23)C(=O)N1C [Example 5053] ({CH2CO}-Y[NMeA]NPHE[Hyp][Bta]AW[NMeNle][NMeNle][Dab]CG-NH2; thioether N-14)	> 74.3 nM	> 30.5 nM
CCCC[C@H]1C(=O)N(C)[C@@H](CCCC)C(=O)N[C@@H](CCN)C(=O)N[C@H](C(=O)NCC(N)=O)CSCC(=O)N[C@@H](Cc2ccc(O)cc2)C(=O)N(C)[C@@H](C)C(=O)N[C@@H](CC(N)=O)C(=O)N2CCC[C@H]2C(=O)N[C@@H](Cc2cnc[nH]2)C(=O)N[C@@H](CCC(=O)O)C(=O)N2C[C@H](O)C[C@H]2C(=O)N[C@@H](Cc2csc3ccccc23)C(=O)N[C@@H](CO)C(=O)N[C@@H](Cc2c[nH]c3ccccc23)C(=O)N1C [Example 5054] ({CH2CO}-Y[NMeA]NPHE[Hyp][Bta]SW[NMeNle][NMeNle][Dab]CG-NH2; thioether N-14)	> 74.3 nM	> 30.5 nM
CCCC[C@H]1C(=O)N(C)[C@@H](CCCC)C(=O)N[C@@H](CCN)C(=O)N[C@H](C(=O)NCC(N)=O)CSCC(=O)N[C@@H](Cc2ccc(O)cc2)C(=O)N(C)[C@@H](C)C(=O)N[C@@H](CC(N)=O)C(=O)N2CCC[C@H]2C(=O)N[C@@H](Cc2cnc[nH]2)C(=O)N[C@@H](CCC(=O)O)C(=O)N2C[C@H](O)C[C@H]2C(=O)N[C@@H](Cc2csc3ccccc23)C(=O)N[C@@H](CCN)C(=O)N[C@@H](Cc2c[nH]c3ccccc23)C(=O)N1C [Example 5055] ({CH2CO}-Y[NMeA]NPHE[Hyp][Bta][Dab]W[NMeNle][NMeNle][Dab]CG-NH2; thioether N-14)	> 74.3 nM	> 30.5 nM
CCCC[C@H]1C(=O)N(C)[C@@H](CCCC)C(=O)N[C@@H](CCN)C(=O)N[C@H](C(=O)NCC(N)=O)CSCC(=O)N[C@@H](Cc2ccc(O)cc2)C(=O)N(C)[C@@H](C)C(=O)N[C@@H](CC(N)=O)C(=O)N2CCC[C@H]2C(=O)N[C@@H](Cc2cnc[nH]2)C(=O)N[C@@H](CCC(N)=O)C(=O)N2C[C@H](O)C[C@H]2C(=O)N[C@@H](Cc2csc3ccccc23)C(=O)N[C@@H](CCN)C(=O)N[C@@H](Cc2c[nH]c3ccccc23)C(=O)N1C [Example 5056] ({CH2CO}-Y[NMeA]NPHQ[Hyp][Bta][Dab]W[NMeNle][NMeNle][Dab]CG-NH2; thioether N-14)	> 74.3 nM	> 30.5 nM
CCCC[C@H]1C(=O)N(C)[C@@H](CCCC)C(=O)N[C@@H](CCCNC(=N)N)C(=O)N[C@H](C(=O)NCC(N)=O)CSCC(=O)N[C@@H](Cc2ccc(O)cc2)C(=O)N(C)[C@@H](C)C(=O)N[C@@H](CC(N)=O)C(=O)N2CCC[C@H]2C(=O)N[C@@H](CN)C(=O)N[C@@H](CC(C)C)C(=O)N2C[C@H](O)C[C@H]2C(=O)N[C@@H](Cc2c[nH]c3ccccc23)C(=O)N[C@@H](CC(=O)O)C(=O)N[C@@H](Cc2c[nH]c3ccccc23)C(=O)N1C [Example 5057] ({CH2CO}-Y[NMeA]NP[Dap]L[Hyp]WDW[NMeNle][NMeNle]RCG-NH2; thioether N-14)	4.78 to 72.9 nM	6.76 to 30.3 nM
CCCC[C@H]1C(=O)N(C)[C@@H](CCCC)C(=O)N[C@@H](CCCNC(=N)N)C(=O)N[C@H](C(=O)NCC(N)=O)CSCC(=O)N[C@@H](Cc2ccc(O)cc2)C(=O)N(C)[C@@H](C)C(=O)N[C@@H](CC(N)=O)C(=O)N2CCC[C@H]2C(=O)N[C@@H](CN)C(=O)N[C@@H](CC(C)C)C(=O)N2C[C@H](O)C[C@H]2C(=O)N[C@@H](Cc2c[nH]c3ccccc23)C(=O)N[C@@H](CCC(=O)O)C(=O)N[C@@H](Cc2c[nH]c3ccccc23)C(=O)N1C [Example 5058] ({CH2CO}-Y[NMeA]NP[Dap]L[Hyp]WEW[NMeNle][NMeNle]RCG-NH2; thioether N-14)	4.78 to 72.9 nM	0.385 to 6.74 nM
